We go through two compounds from PMC4997316, “A ruthenium polypyridyl intercalator stalls DNA replication forks, radiosensitizes human cancer cells and is enhanced by Chk1 inhibition” (Scientific Reports, 2016).

Assay [1] has as its system γH2AX in HeLa cells. Put plainly: γH2AX expression after irradiation (Western blot densitometry). Type of assay: cell-based, human. The settings on record: 40 μM 20 h then 6 Gy IR, harvested 1 h after irradiation. The procedure: Chemotherapeutics are often used in combination with external beam ionising radiation in the treatment of cancers and many drugs that inhibit DNA replication are potent radiosensitizers. To examine the possibility that 1 may function as a radiosensitizer, HeLa cells were pre-treated with 1 for 20 h before irradiation (0–6 Gy ionising irradiation (IR); ^137Cs-γ-rays; dose rate = 0.809 Gy min^−1). After further incubation for 4 h with the complex, the relative impact on cell viability was assessed by clonogenic survival. Complex 2, which achieves its impact on cell proliferation through non-DNA damage-based autophagy, was included in parallel for comparison. […] The formation of γH2AX is an early response to IR-induced DSB generation and may provide an indication of DNA damage levels. […]
Figure 6 [Ru(dppz)2(PIP)]^2+ sensitises human cancer cells to external beam ionising radiation. […] Survival fraction (S. F.) as a result of each treatment was determined by clonogenic assay and is presented as the mean +/− SD of two independent experiments where each experiment was performed in triplicate. […] Cells were harvested 1 h after irradiation and lysates analysed by Western blotting (left). γH2AX levels were measured by densitometry relative to β-actin loading controls and normalised to DMSO + 6 Gy data (right). […]
A general note: A western blot detects proteins with antibodies after separation by electrophoresis.

The test system of assay [2] is Calf thymus DNA. Put plainly: relative viscosity of DNA on addition of complex. Type of assay: binding. Conditions: calf thymus DNA 4.19 × 10^−5 M, r 0-0.3. On the procedure: The novel ruthenium(II) polypyridyl complexes [Ru(dppz)2(PIP)]^2+, 1, and [Ru(dppz)2(p-HPIP)]^2+, 2, (dppz = dipyrido[3,2-a:2′,3′-c]phenazine, PIP = (2-(phenyl)imidazo[4,5-f][1,10]phenanthroline) and p-HPIP ((2-(4-hydroxyphenyl)imidazo[4,5-f][1,10]phenanthroline)) were prepared by modification of reported synthetic pathways[17][30][31] and characterised by standard spectroscopic and analytical techniques (Figs S1–7 in the Supplementary Information). Evidence of a reversible binding interaction with DNA is provided by evidence of hypochromicity of the absorption spectra of 1 and 2 with increasing concentrations of DNA (Fig. S8). […] To investigate specific binding mode, relative viscosities of DNA with increasing concentrations of each complex were determined, where an increase in relative viscosity corresponds to the unwinding and lengthening of the DNA strand as a result of intercalation. […]
Calf thymus DNA, CT-DNA, (Sigma) was dissolved in NaCl (25 mm) and Tris (5 mm, pH 7.0) buffer and concentrations of determined spectroscopically (ε = 6600 dm^3 mol^−1cm^−1 at 260 nm). […] An equilibration time of 20 min was allowed before the flow times were recorded by Cannon–Manning semimicro viscometer (size 50) immersed in a thermostat bath (27 °C). Times were recorded in triplicate to within 0.1 second of each other and averaged values obtained.

Assay [3] relates to MCF7 breast cancer cells. Put plainly: MTT proliferation assay, MCF7. Type of assay: cell-based, human. The settings on record: 24 h proliferation assay. On the procedure: (§1) (LC3 = Microtubule-associated protein light chain 3) (Fig. 2b, bottom).
(§2) Cells were seeded in 96 well plates at 20,000 cells/well, allowed to proliferate for 24 h before treatment as described in the main text. 0.5 mg ml^−1 MTT (thiazolyl blue tetrazolium bromide) dissolved in serum-free media was added for 60 minutes and the formazan product eluted using acidified isopropanol. The absorbance at 540 nm was quantified by plate reader (reference wavelength 650 nm). The metabolic activity of the cell population was determined as a percentage of a negative (solvent) control.
On the technique in general: Tetrazolium assays rely on reduction of a dye to a coloured formazan, in cell work by metabolically active cells.

Assay [4] concerns HeLa cervical cancer cells. The assay is described as follows: MTT proliferation assay, HeLa. Conditions: 24 h proliferation assay. Type of assay: cell-based, human. On the procedure:
as §1, §2

Assay [5] deals with primary human foreskin fibroblasts (HFF). The assay is described as follows: MTT proliferation assay, HFF. Type of assay: cell-based. Conditions: 24 h proliferation assay. The procedure:
as §1, §2

SMILES strings stand for the structures. Where only a bound is given, the exact number is not on record here.

One may read the IC50 as the concentration that inhibits the measured activity by half. A high value points to weaker potency in that assay. In the case of `Oc1ccc(-c2nc3c4cccnc4c4ncccc4c3[nH]2)cc1.[Ru+2].c1ccc2nc3c4cccnc4c4ncccc4c3nc2c1.c1ccc2nc3c4cccnc4c4ncccc4c3nc2c1` [Complex 2, [Ru(dppz)2(p-HPIP)]^2+], the “γH2AX levels compared to IR alone” value in assay [1] is given as “no such increase in γH2AX expression”. Also, the “relative viscosity of DNA” value in assay [2] is recorded as “increase relative viscosity of DNA”. In addition, the values for the 50% inhibitory concentration (IC50) in assay [3], in assay [4] and in assay [5] were 12 µM, 14 µM and greater than 100 µM, respectively.
Regarding `[Ru+2].c1ccc(-c2nc3c4cccnc4c4ncccc4c3[nH]2)cc1.c1ccc2nc3c4cccnc4c4ncccc4c3nc2c1.c1ccc2nc3c4cccnc4c4ncccc4c3nc2c1` [Complex 1, [Ru(dppz)2(PIP)]^2+], in assay [1], the “γH2AX levels compared to IR alone” value is listed as “approximately two-fold greater”. The “relative viscosity of DNA” value in assay [2] is “increase relative viscosity of DNA”. Besides, the 50% inhibitory concentration (IC50) was 28 µM in assay [3], 38 µM in assay [4] and greater than 100 µM in assay [5].
